In US10336702B2, “Pharmaceutically active compounds” (BERGENBIO ASA, priority 2015, dated 2019):

Legend:
[1] = molecular target: T1, p-Akt3 in WM115 cells (Homo sapiens, UniProt Q9Y243); assay: Phospho-Akt cellular SureFire assay, p-Akt3 in WM115 cells; format: cell-based; settings: insulin stimulated, read-out: Biological Assay 2 IC50 (nM) Akt3 WM115
T1 construct: SureFire assays to detect cellular p-Akt1, p-Akt2 and p-Akt3 levels in WM115 cells (Akt2/3) and LNCaP cells (Akt1); endogenous in cells; host or cells: WM115 (ECACC 91061232), insulin-stimulated
T1 sequence (Q9Y243 whole entry): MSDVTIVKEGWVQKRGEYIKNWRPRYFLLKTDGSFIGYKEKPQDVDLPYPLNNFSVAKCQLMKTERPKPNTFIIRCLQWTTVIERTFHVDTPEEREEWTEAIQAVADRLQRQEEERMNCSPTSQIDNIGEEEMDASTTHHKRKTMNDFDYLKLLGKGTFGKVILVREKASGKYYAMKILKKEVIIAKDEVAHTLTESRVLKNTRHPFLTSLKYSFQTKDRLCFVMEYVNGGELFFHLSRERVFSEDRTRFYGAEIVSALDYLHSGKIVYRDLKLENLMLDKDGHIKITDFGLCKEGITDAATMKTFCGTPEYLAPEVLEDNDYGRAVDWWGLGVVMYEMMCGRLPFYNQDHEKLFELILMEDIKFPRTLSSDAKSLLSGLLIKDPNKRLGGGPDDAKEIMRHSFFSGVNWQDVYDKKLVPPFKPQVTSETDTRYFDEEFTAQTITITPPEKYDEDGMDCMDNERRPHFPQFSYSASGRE
Summary of the method: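 pThr308-Akt3 in lysates was quantified by bead-proximity SureFire detection, pairing a phospho-specific antibody with a total Akt3 antibody. Before lysis, WM115 cells in 0.1% FBS medium were treated for 15 min at 37 °C with compound (final DMSO 0.3%), following a 10 min stimulation with 100 nM insulin. IC50 was obtained by 4-parameter fitting.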

[2] = molecular target: T2, Akt3 (Homo sapiens, UniProt Q9Y243); assay: Akt activation assay (PDK1-mediated activation, LANCE Ultra crosstide TR-FRET), Akt3; format: biochemical; settings: read-out: Biological Assay 1 IC50 (nM) Akt3
T2 construct: unspecified tag, removed (detagged) (cleaved yes); purchased SignalChem and Proteros (Akt3); Merck Millipore (PDK1) 14-452 (PDK1); none given for Akt3
T2 sequence (Q9Y243 whole entry): as above
Summary of the method: (§1)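 This TR-FRET readout (Eu-anti-phospho-crosstide antibody, 665/615 nm) measured PDK1-driven activation of Akt. Compound was first preincubated with each Akt isoform: Akt1 5 nM; Akt2 15 nM SignalChem or 5 nM Proteros; Akt3 3 nM SignalChem or 5 nM Proteros. Reactions then ran 30 min with 5 nM PDK1, lipid vesicles containing 0.55 µM PtdIns(3,4,5)P3, 100 µM ATP and 100 nM crosstide at pH 7.5, and IC50 came from a 4-parameter equation.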

[3] = molecular target: T3, p-Akt2 in WM115 cells (Homo sapiens, UniProt P31751); assay: Phospho-Akt cellular SureFire assay, p-Akt2 in WM115 cells; format: cell-based; settings: insulin stimulated, read-out: Biological Assay 2 IC50 (nM) Akt2 WM115
T3 construct: SureFire assays to detect cellular p-Akt1, p-Akt2 and p-Akt3 levels in WM115 cells (Akt2/3) and LNCaP cells (Akt1); endogenous in cells; host or cells: WM115 (ECACC 91061232), insulin-stimulated
T3 sequence (P31751 whole entry): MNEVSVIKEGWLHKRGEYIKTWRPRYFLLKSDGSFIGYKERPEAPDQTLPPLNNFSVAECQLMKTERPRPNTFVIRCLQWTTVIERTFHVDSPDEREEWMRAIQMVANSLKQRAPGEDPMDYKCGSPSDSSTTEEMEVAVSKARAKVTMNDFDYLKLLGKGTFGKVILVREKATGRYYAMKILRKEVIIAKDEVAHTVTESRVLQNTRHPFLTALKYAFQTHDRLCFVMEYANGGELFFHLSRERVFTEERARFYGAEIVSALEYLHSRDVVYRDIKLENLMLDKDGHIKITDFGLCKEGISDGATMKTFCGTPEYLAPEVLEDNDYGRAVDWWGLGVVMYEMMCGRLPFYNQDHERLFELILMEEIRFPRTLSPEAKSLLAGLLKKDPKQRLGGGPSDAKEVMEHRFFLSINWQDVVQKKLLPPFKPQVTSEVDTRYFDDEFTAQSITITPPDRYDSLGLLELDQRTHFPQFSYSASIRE
Summary of the method: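 Readout is a bead-proximity SureFire assay pairing a pThr308 Akt antibody with a total Akt2 antibody, lysate and beads incubated 2 h plus 2 h at room temperature in the dark. Before lysis, serum-starved WM115 cells received 100 nM insulin (10 min), then test compound (15 min, 0.3% DMSO); IC50 by 4-parameter equation.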

[4] = molecular target: T4, p-Akt1 in LNCaP cells (Homo sapiens, UniProt P31749); assay: Phospho-Akt cellular SureFire assay, p-Akt1 in LNCaP cells; format: cell-based; settings: read-out: Biological Assay 2 IC50 (nM) Akt1 LNCaP
T4 construct: SureFire assays to detect cellular p-Akt1, p-Akt2 and p-Akt3 levels in WM115 cells (Akt2/3) and LNCaP cells (Akt1); endogenous in cells; host or cells: LNCaP (ECACC 89110211)
T4 sequence (P31749 whole entry): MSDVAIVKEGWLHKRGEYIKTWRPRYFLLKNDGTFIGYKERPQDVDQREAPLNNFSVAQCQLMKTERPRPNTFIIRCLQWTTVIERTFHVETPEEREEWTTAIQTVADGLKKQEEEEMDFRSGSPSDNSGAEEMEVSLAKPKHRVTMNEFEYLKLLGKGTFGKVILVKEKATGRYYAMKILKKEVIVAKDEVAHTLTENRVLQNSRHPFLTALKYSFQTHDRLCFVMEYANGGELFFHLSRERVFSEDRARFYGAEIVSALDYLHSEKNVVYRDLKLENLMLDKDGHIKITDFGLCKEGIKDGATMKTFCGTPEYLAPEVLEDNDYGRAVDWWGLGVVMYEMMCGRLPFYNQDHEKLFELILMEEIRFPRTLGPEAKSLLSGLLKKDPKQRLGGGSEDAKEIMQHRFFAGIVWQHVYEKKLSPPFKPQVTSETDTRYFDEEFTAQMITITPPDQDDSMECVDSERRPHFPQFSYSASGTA
Summary of the method: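 Phospho-Thr308 Akt1 detected by AlphaScreen SureFire proximity beads in LNCaP lysates after 15 min compound treatment at 37 °C in 0.1% FBS medium, unstimulated, 0.3% DMSO. Cells plated at 5×10^4/well overnight; IC50 from a 4-parameter equation.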

[5] = molecular target: T5, Akt1 (Homo sapiens, UniProt P31749); assay: Akt activation assay (PDK1-mediated activation, LANCE Ultra crosstide TR-FRET), Akt1; format: biochemical; settings: read-out: Biological Assay 1 IC50 (nM) Akt1
T5 construct: unspecified tag, removed (detagged) (cleaved yes); purchased SignalChem and Proteros (Akt1); Merck Millipore (PDK1) 14-452 (PDK1); none given for Akt1
T5 sequence (P31749 whole entry): as above
Summary of the method: as §1

[6] = molecular target: T6, Akt2 (Homo sapiens, UniProt P31751); assay: Akt activation assay (PDK1-mediated activation, LANCE Ultra crosstide TR-FRET), Akt2; format: biochemical; settings: read-out: Biological Assay 1 IC50 (nM) Akt2
T6 construct: unspecified tag, removed (detagged) (cleaved yes); purchased SignalChem and Proteros (Akt2); Merck Millipore (PDK1) 14-452 (PDK1); none given for Akt2
T6 sequence (P31751 whole entry): as the sequence (P31751 whole entry) above
Summary of the method: as §1

Row | IC50 [1] | IC50 [2] | IC50 [3] | IC50 [4] | IC50 [5] | IC50 [6] | Structure (SMILES)
1 | 470 nM | 120 nM | 6100 nM | > 30000 nM | > 30000 nM | 5700 nM | COC(=O)N(C)[C@H]1CC[C@H](CC(=O)Nc2cc(-c3ccccc3F)c(-c3ccc(C4(N)CCC4)cc3)cn2)CC1 [Example A63, Methyl (trans-4-(2-((5-(4-(1-aminocyclobutyl)phenyl)-4-(2-fluorophenyl)pyridin-2-yl)amino)-2-oxoethyl)cyclohexyl)(methyl)carbamate]
2 | 1500 nM | 5900 nM | > 20000 nM | > 30000 nM | > 30000 nM | > 30000 nM | COC(=O)N(C)[C@H]1CC[C@H](CC(=O)Nc2cnc(-c3ccc(C(C)(C)N)c(F)c3)c(-c3ccccc3)c2)CC1 [Example A28, Methyl (trans-4-(2-((6-(4-(2-aminopropan-2-yl)-3-fluorophenyl)-5-phenylpyridin-3-yl)amino)-2-oxoethyl)cyclohexyl)(methyl)carbamate]
3 | 510 nM | 2000 nM | 8900 nM | > 30000 nM | > 30000 nM | 9600 nM | CN([C@H]1CC[C@H](CC(=O)Nc2cnc(-c3ccc(C(C)(C)N)cc3)c(-c3ccsc3)c2)CC1)S(C)(=O)=O [Example A24, N-(6-(4-(2-aminopropan-2-yl)phenyl)-5-(thiophen-3-yl)pyridin-3-yl)-2-(trans-4-(N-methylmethylsulfonamido)cyclo-hexyl)acetamide]
4 | 390 nM | 740 nM | 7000 nM | > 30000 nM | > 30000 nM | 3300 nM | CN([C@H]1CC[C@H](CC(=O)Nc2cnc(-c3ccc(C(C)(C)N)cc3)c(-c3ccccc3F)c2)CC1)S(C)(=O)=O [Example A26, N-(6-(4-(2-aminopropan-2-yl)phenyl)-5-(2-fluorophenyl)pyridin-3-yl)-2-(trans-4-(N-methylmethylsulfonamido)cyclo-hexyl)acetamide]
5 | 150 nM | 51 nM | 7100 nM | > 30000 nM | > 30000 nM | 4000 nM | CCC(=O)N(C)[C@H]1CC[C@H](CC(=O)Nc2cc(-c3ccccc3)c(-c3ccc(C(C)(C)N)cc3)nn2)CC1 [Example A84, N-(trans-4-(2-((6-(4-(2-aminopropan-2-yl)phenyl)-5-phenylpyridazin-3-yl)amino)-2-oxoethyl)cyclohexyl)-N-methylpropionamide]
6 | 830 nM | 200 nM | > 30000 nM | > 30000 nM | > 30000 nM | 8900 nM | COC(=O)N(C)[C@H]1CC[C@H](CC(=O)Nc2cnc(-c3ccc(C(C)(C)N)cc3)c(-c3ccsc3)c2)CC1 [Example A67, Methyl (trans-4-(2-((6-(4-(2-aminopropan-2-yl)phenyl)-5-(thiophen-3-yl)pyridin-3-yl)amino)-2-oxoethyl)cyclohexyl)(methyl)carbamate]
7 | 200 nM | 55 nM | 5400 nM | > 30000 nM | > 36000 nM | 2300 nM | CC(C)(N)c1ccc(-c2ncc(NC(=O)C[C@H]3CC[C@H](NC(=O)C4CC4)CC3)cc2-c2ccccc2)cc1 [Example A20, N-(trans-4-(2-((6-(4-(2-aminopropan-2-yl)phenyl)-5-phenylpyridin-3-yl)amino)-2-oxoethyl)cyclohexyl)cyclopropane-carboxamide]

The remaining lines, values behind:

Row | Structure (SMILES) | IC50 [1] | IC50 [2] | IC50 [3] | IC50 [4] | IC50 [5] | IC50 [6]
8 | CC(=O)N(C)[C@H]1CC[C@H](CC(=O)Nc2cc(-c3ccsc3)c(-c3ccc([C@]4(N)C[C@H](F)C4)cc3)nn2)CC1 [Example 75, N-(6-(4-(trans-1-amino-3-fluorocyclobutyl)phenyl)-5-(thiophen-3-yl)pyridazin-3-yl)-2-(trans-4-(N-methylacetamido)cyclohexyl)acetamide] | 46 nM | 18 nM | 3200 nM | > 30000 nM | > 16000 nM | 580 nM
9 | N[C@]1(c2ccc(-c3nnc(NC(=O)C[C@H]4CC[C@H](N5CCOC5=O)CC4)cc3-c3ccsc3)cc2)C[C@@H](F)C1 [Example 79, N-(6-(4-(trans-1-amino-3-fluorocyclobutyl)phenyl)-5-(thiophen-3-yl)pyridazin-3-yl)-2-(trans-4-(2-oxooxazolidin-3-yl)cyclohexyl)acetamide] | 59 nM | 26 nM | > 30000 nM | > 30000 nM | > 30000 nM | 590 nM
10 | CC(C)C(=O)N(C)[C@H]1CC[C@H](CC(=O)Nc2cnc(-c3ccc(C(C)(C)N)cc3)c(-c3ccccc3)c2)CC1 [Example 4, N-(trans-4-(2-((6-(4-(2-aminopropan-2-yl)phenyl)-5-phenylpyridin-3-yl)amino)-2-oxoethyl)cyclohexyl)-N-methylisobutyramide] | 190 nM | 73 nM | 7400 nM | > 30000 nM | > 30000 nM | 7300 nM
11 | NC1(c2ccc(-c3ncc(NC(=O)C[C@H]4CC[C@H](N5CCOCC5)CC4)cc3-c3ccsc3)cc2)CCC1 [Example 38, N-(6-(4-(1-aminocyclobutyl)phenyl)-5-(thiophen-3-yl)pyridin-3-yl)-2-(trans-4-morpholinocyclohexyl)acetamide] | 92 nM | 560 nM | 3000 nM | 7000 nM | 9000 nM | 1900 nM
12 | CC(C)(N)c1ccc(-c2ncc(NC(=O)C[C@H]3CC[C@H](NC(=O)C4CC4)CC3)cc2-c2ccsc2)cc1 [Example 26, N-(trans-4-(2-((6-(4-(2-aminopropan-2-yl)phenyl)-5-(thiophen-3-yl)pyridin-3-yl)amino)-2-oxoethyl)cyclohexyl)cyclopropanecarboxamide] | 380 nM | 1600 nM | 9000 nM | > 16000 nM | > 30000 nM | 12000 nM
13 | CC(=O)N(C)[C@H]1CC[C@H](CC(=O)Nc2cnc(-c3ccc(C4(N)CCC4)cc3)c(-c3ccccc3)c2)CC1 [Example 10, N-(6-(4-(1-aminocyclobutyl)phenyl)-5-phenylpyridin-3-yl)-2-(trans-4-(N-methylacetamido)cyclohexyl)acetamide] | 39 nM | 30 nM | 970 nM | 6700 nM | 6200 nM | 260 nM
14 | CCC(=O)N(C)[C@H]1CC[C@H](CC(=O)Nc2cc(-c3ccccc3)c(-c3ccc([C@]4(N)C[C@](C)(O)C4)cc3)cn2)CC1 [Example 82, N-(trans-4-(2-((5-(4-(trans-1-amino-3-hydroxy-3-methylcyclobutyl)phenyl)-4-phenylpyridin-2-yl)amino)-2-oxoethyl)cyclohexyl)-N-methylpropionamide] | 10 nM | 6 nM | 380 nM | 2400 nM | > 19000 nM | 130 nM
15 | COC(=O)N(C)[C@H]1CC[C@H](CC(=O)Nc2cc(-c3ccccc3)c(-c3ccc(C4(N)CC(F)(F)C4)cc3)nn2)CC1 [Example 60, Methyl (trans-4-(2-((6-(4-(1-amino-3,3-difluorocyclobutyl)phenyl)-5-phenylpyridazin-3-yl)amino)-2-oxoethyl)cyclohexyl)(methyl)carbamate] | 290 nM | 50 nM | 8800 nM | > 30000 nM | > 30000 nM | 710 nM
16 | COC(=O)N(C)[C@H]1CC[C@H](CC(=O)Nc2cnc(-c3ccc([C@]4(N)C[C@H](F)C4)cc3)c(-c3ccccc3)c2)CC1 [Example 77, Methyl (trans-4-(2-((6-(4-(trans-1-amino-3-fluorocyclobutyl)phenyl)-5-phenylpyridin-3-yl)amino)-2-oxoethyl)cyclohexyl)(methyl)carbamate] | 100 nM | 62 nM | 5100 nM | > 30000 nM | 7900 nM | 1100 nM
